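Step 1: Grow cells in 96-well plates. Step 2: Expose to compound for 48 hours at 5 concentrations. Step 3: Interpolate endpoints linearly; if unreached, use highest concentration. GI50 marks 50% less growth. Definition used: TGI = concentration required for complete inhibition of growth.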
Legend:
Experiment in all cases: NCI-60 cell line screen, 48 h
SK-MEL-5 melanoma = tested on: SK-MEL-5 melanoma
OVCAR-4 ovarian = tested on: OVCAR-4 ovarian
A549 NSCLC = tested on: A549 NSCLC
MDA-MB-231 breast = tested on: MDA-MB-231 breast
T-47D breast = tested on: T-47D breast
UACC-257 melanoma = tested on: UACC-257 melanoma
MOLT-4 leukemia = tested on: MOLT-4 leukemia
UO-31 renal = tested on: UO-31 renal
CAKI-1 renal = tested on: CAKI-1 renal
786-0 renal = tested on: 786-0 renal

| Compound | GI50 (SK-MEL-5 melanoma) | TGI (SK-MEL-5 melanoma) | GI50 (OVCAR-4 ovarian) | TGI (OVCAR-4 ovarian) | GI50 (A549 NSCLC) | TGI (A549 NSCLC) | GI50 (MDA-MB-231 breast) | TGI (MDA-MB-231 breast) | GI50 (T-47D breast) | TGI (T-47D breast) | GI50 (UACC-257 melanoma) | TGI (UACC-257 melanoma) | GI50 (MOLT-4 leukemia) | TGI (MOLT-4 leukemia) | GI50 (UO-31 renal) | TGI (UO-31 renal) | GI50 (CAKI-1 renal) | TGI (CAKI-1 renal) | TGI (786-0 renal) | GI50 (786-0 renal) |
| --- | --- | --- | --- | --- | --- | --- | --- | --- | --- | --- | --- | --- | --- | --- | --- | --- | --- | --- | --- | --- |
| COc1ccc(C(=O)/C=C/c2cc3ccccc3[nH]c2=O)cc1 | 25 µM | > 56.6 µM | 19.5 µM | > 100 µM | 20 µM | > 100 µM | 22.3 µM | > 56.4 µM | 18.8 µM | > 100 µM | 25.5 µM | > 56.5 µM | 22.2 µM | > 100 µM | > 100 µM | > 100 µM | 14.9 µM | 28.2 µM | > 37.4 µM |  |
| O=C(O)C(=O)Cc1ccc2c(c1)OCO2 |  | > 100 µM |  | > 100 µM |  | > 100 µM |  | > 100 µM |  | > 100 µM |  | > 100 µM |  | > 100 µM |  | > 100 µM |  | > 100 µM | > 100 µM |  |
| O=S(=O)(NCCNc1cc(-c2cn(-c3ccccc3)nc2-c2cccc(O)c2)ccn1)c1ccc(C(F)(F)F)cc1 | 1.78 µM | 3.36 µM | 2.85 µM | 16.9 µM | 3.89 µM | 18.2 µM | 2.12 µM | 4.72 µM | 1.84 µM | 6.73 µM | 4.79 µM | 18.4 µM | 2.05 µM | 5.71 µM | 1.81 µM | 4.28 µM | 1.94 µM | 5.35 µM | 4.45 µM | 1.72 µM |
| CS(=O)(=O)c1ccc(N/N=C/c2c(-c3ccc(S(C)(=O)=O)cc3)[nH]c3ccc(F)cc23)cc1 | 0.792 µM | 1.5 µM | 1.97 µM | > 50 µM | 7.98 µM | > 50 µM | 1.69 µM | > 50 µM | 1.41 µM | > 50 µM | 1.8 µM | 20.2 µM | 1.19 µM | > 50 µM | 2.16 µM | > 50 µM | > 50 µM | > 50 µM | > 50 µM | 1.69 µM |
| CCN(Cc1ccc(F)cc1)c1ccc(CO)c(Cl)c1 | 1.86 µM | 15.2 µM | 0.298 µM | 7.48 µM | 1.16 µM | 22.6 µM | 15.6 µM | 51.5 µM | 0.0821 µM | 0.472 µM | 0.0835 µM | 0.285 µM | 15.1 µM | 42.6 µM | 3.02 µM | 31.5 µM | 0.487 µM | 8.79 µM | 23.3 µM | 4.6 µM |
| O=C(O)C1C2C=CC(O2)C1C(=O)Nc1ccccc1 (centres undefined) |  | > 100 µM |  | > 100 µM |  | > 100 µM |  | > 100 µM |  | > 100 µM |  | > 100 µM |  | > 100 µM |  | > 100 µM |  | > 100 µM | > 100 µM |  |
| CCC1CCc2nc3sc(C(=O)Nc4ccccc4F)c(N)c3cc2C1 (centres undefined) | 0.656 µM | > 100 µM | > 100 µM | > 100 µM | > 100 µM | > 100 µM | > 100 µM | > 100 µM | > 100 µM | > 100 µM | 0.934 µM | > 100 µM | 0.471 µM | > 100 µM | > 100 µM | > 100 µM | 0.768 µM | > 100 µM | > 100 µM | 41.7 µM |
| COc1cccc(-c2nn(-c3ccccc3)cc2-c2ccnc(NCCNS(=O)(=O)c3ccc(C(F)(F)F)cc3)c2)c1 | 1.72 µM | 3.11 µM | 2.94 µM | > 100 µM | 3.71 µM | 32 µM | 3.15 µM | > 100 µM | 2.36 µM | 7.55 µM | 3.14 µM | 15 µM | 1.93 µM | 5.48 µM | 2.61 µM | > 100 µM | 3.64 µM | > 100 µM | 21.4 µM | 2.63 µM |
| Cc1cc(Cl)ccc1Nc1sc(C(=O)c2cc3cc(Cl)ccc3o2)c(N)c1C#N |  | > 100 µM |  | 25.1 µM |  | > 54.7 µM |  | > 55 µM |  | > 100 µM |  | > 100 µM |  | > 100 µM |  | > 100 µM |  | > 100 µM | 28.6 µM |  |
| Cc1cc(NC(=O)c2ccc(NS(=O)(=O)CCO)cc2N2CCC3(CC2)CC3)nc(N2CCC(F)(F)CC2)n1 | 2.7 µM | 19.7 µM | 14.2 µM | 27.7 µM | 14.2 µM | 30.4 µM | 0.188 µM | 17.6 µM | 12.5 µM | 31.8 µM | 16.8 µM | 32 µM | 12.1 µM | 33.1 µM | 11.4 µM | 23.8 µM | 10.9 µM | 23.2 µM | 30.6 µM | 14.9 µM |
| COc1ccc(NC(=O)C(=O)C(CC2C(=O)NC(=S)NC2=O)C(=O)c2ccc3ccccc3c2)c([N+](=O)[O-])c1 (centres undefined) |  | > 100 µM |  | > 100 µM |  | > 100 µM |  | > 100 µM |  | > 100 µM |  | > 100 µM |  | > 100 µM |  | > 100 µM |  | > 100 µM | > 100 µM |  |
| Cc1cc(N(CCOS(C)(=O)=O)CCOS(C)(=O)=O)ccc1C=Nc1ccc(-c2csc(-c3ccccc3)n2)c(Cl)c1 |  | 16.2 µM |  | 51.3 µM |  | 15.9 µM |  | 50.9 µM |  | > 85.2 µM |  | 49.3 µM |  | 38.7 µM |  | 29.7 µM |  | 1.32 µM | 17.7 µM |  |
